From patent US20060069132A1, “Azolecarboxamide herbicides” (priority 2004, published 2006)
Read-outs that look alike come from different tables or passages of the source.

Assays:
[1] = test system: Surinam grass; test: Test B pre-/postemergence herbicide test; format: in vivo, Urochloa decumbens; settings: Urochloa decumbens; for pest or weed control at 125 g/ha: 125 g ai/ha; for pest or weed control at 500 g/ha: 500 g ai/ha
Summary of the method: (§1)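 Test chemicals in a non-phytotoxic solvent mixture with surfactant were applied preemergence to seeded species and postemergence to plants 2-18 cm tall (1- to 4-leaf stage); rice and barnyardgrass were also tested in a flooded paddy at the 2-leaf stage. Visual rating versus controls after 13-15 days in greenhouse, scale 0 (no effect) to 100 (complete control).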

[2] = test system: large crabgrass; test: Test B pre-/postemergence herbicide test; format: in vivo, Digitaria sanguinalis; settings: Digitaria sanguinalis; for pest or weed control at 125 g/ha: 125 g ai/ha; for pest or weed control at 500 g/ha: 500 g ai/ha
Summary of the method: as §1

[3] = test system: rice; test: Test B pre-/postemergence herbicide test; format: in vivo, Oryza sativa; settings: Oryza sativa, pre-emergence, 336 h, 0 = no effect, 100 = complete control; for plant injury at 125 g/ha: 125 g ai/ha, read-out: Rice plant response rating (0 to 100 scale); for plant injury at 500 g/ha: 500 g ai/ha, visual rating, read-out: Plant response rating, Rice
Summary of the method: as §1

[4] = test system: cocklebur; test: Test C pre-/postemergence herbicide test; format: in vivo, Xanthium strumarium; settings: Xanthium strumarium, pre-emergence, 312 h; for pest or weed control at 62 g/ha: 62 g ai/ha, preemergence, scale 0 to 100; for pest or weed control at 62 g/ha / pest or weed control at 125 g/ha / pest or weed control at 250 g/ha: read-out: Plant response rating, Cocklebur; for pest or weed control at 125 g/ha: 125 g ai/ha, scale 0 (no effect) to 100 (complete control), visual, 12 to 14 days; for pest or weed control at 250 g/ha: 250 g ai/ha, scale 0-100; for pest or weed control at 500 g/ha: Preemergence, 500 g ai/ha, scale 0 to 100, 0 no effect, 100 complete control, read-out: Cocklebur plant response rating
Summary of the method: (§2)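 Pre/post spray; non-phytotoxic solvent + surfactant. Post-timing 1–4 leaves, 2–18 cm. Read-out: visual % control vs untreated, day 12–14, greenhouse.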

[5] = test system: large crabgrass; test: Test C pre-/postemergence herbicide test; format: in vivo, Digitaria sanguinalis; settings: Digitaria sanguinalis, pre-emergence, 312 h, read-out: Plant response rating, Crabgrass, Large; for pest or weed control at 62 g/ha: 62 g ai/ha, preemergence, scale 0 to 100; for pest or weed control at 125 g/ha: 125 g ai/ha, scale 0 (no effect) to 100 (complete control); for pest or weed control at 125 g/ha / pest or weed control at 500 g/ha: visual, 12 to 14 days; for pest or weed control at 250 g/ha: 250 g ai/ha, scale 0-100; for pest or weed control at 500 g/ha: 500 g ai/ha, scale 0 to 100 (0 no effect, 100 complete control)
Summary of the method: as §2

[6] = test system: johnsongrass; test: Test C pre-/postemergence herbicide test; format: in vivo, Sorghum halepense; settings: Sorghum halepense, pre-emergence, read-out: Plant response rating, Johnsongrass; for pest or weed control at 62 g/ha: 62 g ai/ha, preemergence, scale 0 to 100; for pest or weed control at 125 g/ha: 125 g ai/ha, scale 0 (no effect) to 100 (complete control); for pest or weed control at 125 g/ha / pest or weed control at 500 g/ha: visual, 12 to 14 days; for pest or weed control at 250 g/ha: 250 g ai/ha, scale 0-100; for pest or weed control at 500 g/ha: 500 g ai/ha, scale 0 to 100 (0 no effect, 100 complete control)
Summary of the method: as §2

[7] = test system: morningglory; test: Test C pre-/postemergence herbicide test; format: in vivo, Ipomoea coccinea; settings: Ipomoea, pre-emergence, read-out: Plant response rating, Morningglory; for pest or weed control at 62 g/ha: 62 g ai/ha, preemergence, scale 0 to 100; for pest or weed control at 125 g/ha: 125 g ai/ha, scale 0 (no effect) to 100 (complete control); for pest or weed control at 125 g/ha / pest or weed control at 500 g/ha: visual, 12 to 14 days; for pest or weed control at 250 g/ha: 250 g ai/ha, scale 0-100; for pest or weed control at 500 g/ha: 500 g ai/ha, scale 0 to 100 (0 no effect, 100 complete control)
Summary of the method: as §2

[8] = test system: eastern black nightshade; test: Test C pre-/postemergence herbicide test; format: in vivo, Solanum ptycanthum; settings: pre-emergence, read-out: Plant response rating, Nightshade; for pest or weed control at 62 g/ha: 62 g ai/ha, preemergence, scale 0 to 100; for pest or weed control at 125 g/ha: 125 g ai/ha, scale 0 (no effect) to 100 (complete control); for pest or weed control at 125 g/ha / pest or weed control at 500 g/ha: visual, 12 to 14 days; for pest or weed control at 250 g/ha: 250 g ai/ha, scale 0-100; for pest or weed control at 500 g/ha: 500 g ai/ha, scale 0 to 100 (0 no effect, 100 complete control)
Summary of the method: as §2

[9] = test system: yellow nutsedge; test: Test C pre-/postemergence herbicide test; format: in vivo, Cyperus esculentus; settings: Cyperus, pre-emergence, read-out: Plant response rating, Nutsedge, Yellow; for pest or weed control at 62 g/ha: 62 g ai/ha, preemergence, scale 0 to 100; for pest or weed control at 125 g/ha: 125 g ai/ha, scale 0 (no effect) to 100 (complete control); for pest or weed control at 125 g/ha / pest or weed control at 500 g/ha: visual, 12 to 14 days; for pest or weed control at 250 g/ha: 250 g ai/ha, scale 0-100; for pest or weed control at 500 g/ha: 500 g ai/ha, scale 0 to 100 (0 no effect, 100 complete control)
Summary of the method: as §2

[10] = test system: barnyardgrass; test: Test C flooded paddy test; format: in vivo, Echinochloa crus-galli; settings: Echinochloa crus-galli; for pest or weed control at 62 g/ha: 62 g ai/ha; for pest or weed control at 62 g/ha / pest or weed control at 125 g/ha / pest or weed control at 500 g/ha: scale 0 to 100 (0 no effect, 100 complete control); for pest or weed control at 62 g/ha / pest or weed control at 125 g/ha / pest or weed control at 250 g/ha: read-out: Barnyardgrass plant response rating; for pest or weed control at 125 g/ha: 125 g ai/ha; for pest or weed control at 250 g/ha: 250 g ai/ha, scale of 0 to 100, 0 is no effect, 100 is complete control; for pest or weed control at 500 g/ha: 500 g ai/ha, visual rating after 12 to 14 days, read-out: Plant response rating, Barnyardgrass
Summary of the method: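 Ratings (0 = no effect, 100 = complete control) come from visual comparison with untreated plants after 12 to 14 days in the greenhouse. Treatment was postemergence at the 1- to 4-leaf stage (2–18 cm), or at the 2-leaf stage for the flooded paddy barnyardgrass.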

[11] = post-emergence, postemergence, visual rating, scale 0 (no effect) to 100 (complete control), read-out: Surinam Grass plant response rating
[12] = pre-emergence, 0 = no effect, 100 = complete control, read-out: Surinam Grass plant response rating (0 to 100 scale)
[13] = pre-emergence, visual rating, 0 = no effect, 100 = complete control, read-out: Plant response rating, Surinam Grass
[14] = post-emergence, postemergence, visual rating, scale 0 (no effect) to 100 (complete control), read-out: Crabgrass, Large plant response rating
[15] = pre-emergence, 0 = no effect, 100 = complete control, read-out: Crabgrass, Large plant response rating (0 to 100 scale)
[16] = pre-emergence, visual rating, 0 = no effect, 100 = complete control, read-out: Plant response rating, Crabgrass, Large

SMILES	pest or weed control at 125 g/ha [1, 11]	pest or weed control at 125 g/ha [1, 12]	pest or weed control at 500 g/ha [1, 13]	pest or weed control at 125 g/ha [2, 14]	pest or weed control at 125 g/ha [2, 15]	pest or weed control at 500 g/ha [2, 16]	plant injury at 125 g/ha [3]	plant injury at 500 g/ha [3]	pest or weed control at 62 g/ha [4]	pest or weed control at 125 g/ha [4]	pest or weed control at 250 g/ha [4]	pest or weed control at 500 g/ha [4]	pest or weed control at 62 g/ha [5]	pest or weed control at 125 g/ha [5]	pest or weed control at 250 g/ha [5]	pest or weed control at 500 g/ha [5]	pest or weed control at 62 g/ha [6]	pest or weed control at 125 g/ha [6]	pest or weed control at 250 g/ha [6]	pest or weed control at 500 g/ha [6]	further results
CCN1N=C(C(C)(C)C)CC1C(=O)Nc1cc(C(=O)N(C)C)ccc1F (stereo not shown) [Compound 268, N-[5-[(dimethylamino)carbonyl]-2-fluorophenyl]-3-(1,1-dimethylethyl)-1-ethyl-4,5-dihydro-1H-pyrazole-5-carboxamide]	10%	80%	100%	0%	100%	100%	90%	90%	10%	60%	70%	85%	90%	95%	100%	100%	70%	90%	100%	100%	pest or weed control at 500 g/ha ([1]; post-emergence, postemergence, scale 0 to 100, 0 is no effect, 100 is complete control, read-out: Surinam Grass plant response rating): 50%; pest or weed control at 500 g/ha ([2]; post-emergence, postemergence, scale 0 to 100, 0 is no effect, 100 is complete control, read-out: Crabgrass, Large plant response rating): 20%; pest or weed control at 62 g/ha [7]: 0%; pest or weed control at 125 g/ha [7]: 0%; pest or weed control at 250 g/ha [7]: 5%; pest or weed control at 500 g/ha [7]: 5%; pest or weed control at 62 g/ha [8]: 100%; pest or weed control at 125 g/ha [8]: 100%; pest or weed control at 250 g/ha [8]: 100%; pest or weed control at 500 g/ha [8]: 100%; pest or weed control at 62 g/ha [9]: 30%; pest or weed control at 125 g/ha [9]: 50%; pest or weed control at 250 g/ha [9]: 60%; pest or weed control at 500 g/ha [9]: 70%; pest or weed control at 62 g/ha [10]: 65%; pest or weed control at 125 g/ha [10]: 90%; pest or weed control at 250 g/ha [10]: 95%; pest or weed control at 500 g/ha [10]: 95%
CCc1nn(C(C)(C)C)cc1C(=O)Nc1cc(C(=O)N(C)C)ccc1F [Compound 222, N-[5-[(dimethylamino)carbonyl]-2-fluorophenyl]-1-(1,1-dimethylethyl)-3-ethyl-1H-pyrazole-4-carboxamide]	10%	90%	100%	10%	90%	100%	90%	100%	0%	20%	70%	100%	100%	100%	100%	100%	85%	100%	100%	100%	pest or weed control at 500 g/ha [1, 11]: 30%; pest or weed control at 500 g/ha [2, 14]: 20%; pest or weed control at 62 g/ha [7]: 0%; pest or weed control at 125 g/ha [7]: 20%; pest or weed control at 250 g/ha [7]: 30%; pest or weed control at 500 g/ha [7]: 100%; pest or weed control at 62 g/ha [8]: 85%; pest or weed control at 125 g/ha [8]: 100%; pest or weed control at 250 g/ha [8]: 100%; pest or weed control at 500 g/ha [8]: 100%; pest or weed control at 62 g/ha [9]: 0%; pest or weed control at 125 g/ha [9]: 0%; pest or weed control at 250 g/ha [9]: 20%; pest or weed control at 500 g/ha [9]: 60%; pest or weed control at 62 g/ha [10]: 15%; pest or weed control at 125 g/ha [10]: 75%; pest or weed control at 250 g/ha [10]: 90%; pest or weed control at 500 g/ha [10]: 95%
